# System: B16 melanoma cells
# Experiment: Caspase-3 activity assay (EnzChek Caspase-3 Assay Kit), caspase-3 induction in tumor cells; note: test concentration or dose not given here
# Type: cell-based, mouse
# Settings: for Caspase-3 induction, Normalized to Formula (III) (%): relative to compound of Formula (III)
# Excerpt: The EnzChek® Caspase-3 Assay Kit was used to detect apoptosis by assaying for increases in caspase-3 activities. The basis for the assay was rhodamine 110 bis-(N-CBZ-L-aspartyl-L-glutamyl-L-valyl-L-aspartic acid amide) (Z-DEVD-R110). This substrate is a bisamide derivative of rhodamine 110 (R110) containing DEVD peptides covalently linked to each of R110's amino groups, thereby suppressing the dye's visible absorption and its fluorescence. Upon enzymatic cleavage, the nonfluorescent bisamide substrate is converted in a two-step process first to a fluorescent monoamide and then to an even more fluorescent R110.
# At least 1×10^6 cells of the lysate were used for each reaction. B16 cells were treated with compounds to induce apoptosis. A negative control was prepared by incubating cells in the absence of compounds. The cells were incubated with compounds for 24 hrs and washed in PBS. Each cell sample or control was resuspended in 50 μL of the 1×cell lysis buffer. Cells were lysed by incubating on ice for 30 minutes, and the lysed cells were centrifuged to pellet the cellular debris. 50 μL of the supernatant was transferred from each sample to individual microplate wells. 50 μL of the 1× cell lysis buffer was used as a no-enzyme control to determine the background fluorescence of the substrate. 50 μL of the 2×substrate working solution was added to each sample and control. The microplate was covered, and the samples were incubated at room temperature for approximately 30 minutes. The fluorescence was measured by a fluorescence microplate reader (excitation/emission ˜496/520 nm) using excitation and emission filters.
# The ability of this small molecule inhibitor to inhibit intracellular Sb9 was then evaluated. As a marker for cell penetration, the induction of caspase-3 activity in B16 melanoma cells as a surrogate marker for increased GrB activity was measured.
# The induction of caspase-3 activity in B16 melanoma cells as a surrogate marker for increased GrB activity was also measured for other small molecules (compounds of Formulas (V) and (VI) as described herein).
Compound,"Caspase-3 induction, Normalized to Formula (III) (%)",Ratio of caspase-3 activity to Formula (III)
"Cc1cc(O)c(O)cc1C(=O)NCC(C)C [4,5-dihydroxy-2-methyl-N-(2-methylpropyl)benzamide]",−27.9096%,–
"O=C(NCc1ccccc1)c1ccc2nc(C3CCCCC3)oc2c1 [N-benzyl-2-cyclohexyl-1,3-benzoxazole-6-carboxamide]",−61.2418%,–
"COc1cccc(-c2nc3ccc(C(=O)N4CCS(=O)(=O)CC4)cc3o2)c1 [6-[(1,1-dioxidothiomorpholin-4-yl)carbonyl]-2-(3-methoxyphenyl)-1,3-benzoxazole]",–,0.7081
"Cc1cc(O)c(O)cc1C(=O)NCc1ccccc1 [N-benzyl-4,5-dihydroxy-2-methylbenzamide]",−43.6184%,–
"CCN(C)C(=O)c1cc(OC)c(O)c(OC)c1 [N-ethyl-4-hydroxy-3,5-dimethoxy-N-methylbenzamide]",−34.6356%,–
"CN(CCC(O)c1ccccc1)C(=O)c1ccc2oc(-c3cccc(F)c3)nc2c1 (stereo not shown) [2-(3-fluorophenyl)-N-(3-hydroxy-3-phenylpropyl)-N-methyl-1,3-benzoxazole-5-carboxamide]",–,0.1288
COc1cc(C(=O)NCC2CCOCC2)ccc1O [4-hydroxy-3-methoxy-N-[(oxan-4-yl)methyl]benzamide],−76.3077%,–
"Cc1nc(CNC(=O)c2ccc3oc(-c4cccc(F)c4)nc3c2)cs1 [2-(3-fluorophenyl)-N-[(2-methyl-1,3-thiazol-4-yl)methyl]-1,3-benzoxazole-5-carboxamide]",–,0.09788
"COCCCNC(=O)c1cc(OC)c(OC)cc1Br [2-bromo-4,5-dimethoxy-N-(3-methoxypropyl)benzamide]",−85.9622%,–
"CCN(C)C(=O)c1cccc2nc(N(C)C)oc12 [2-(dimethylamino)-N-ethyl-N-methyl-1,3-benzoxazole-7-carboxamide]",−30.9946%,–
CCOc1ccc(C(=O)N(C)CC)cc1O [4-ethoxy-N-ethyl-3-hydroxy-N-methylbenzamide],−69.889%,–
"Cc1nc2c(C(=O)NCc3ccccc3)cccc2o1 [N-benzyl-2-methyl-1,3-benzoxazole-4-carboxamide]",−46.2057%,–
"CN(C)c1nc2cccc(C(=O)NCc3ccccc3)c2o1 [N-benzyl-2-(dimethylamino)-1,3-benzoxazole-7-carboxamide]",−26.8974%,–
"CCN(CCn1cccn1)C(=O)c1ccc2nc(-c3cccc(OC)c3)oc2c1 [N-ethyl-2-(3-methoxyphenyl)-N-[2-(1H-pyrazol-1-yl)ethyl]-1,3-benzoxazole-6-carboxamide]",–,0.1363
"O=C(NCCCn1cccn1)c1ccc2oc(-c3cccc(F)c3)nc2c1 [2-(3-fluorophenyl)-N-[3-(1H-pyrazol-1-yl)propyl]-1,3-benzoxazole-5-carboxamide]",–,0.9113
"CCN(C)C(=O)c1cc(OC)c(OC)cc1Br [2-bromo-N-ethyl-4,5-dimethoxy-N-methylbenzamide]",−74.0106%,–
"CCN(C)C(=O)c1cc(O)c(O)cc1C [N-ethyl-4,5-dihydroxy-N,2-dimethylbenzamide]",−33.2116%,–
"COCCCNC(=O)c1ccc2nc(C(F)(F)C(F)(F)F)oc2c1 [N-(3-methoxypropyl)-2-(1,1,2,2,2-pentafluoroethyl)-1,3-benzoxazole-6-carboxamide]",−23.2124%,–
"COc1cccc(-c2nc3ccc(C(=O)NCC4CCOCC4)cc3o2)c1 [2-(3-methoxyphenyl)-N-(tetrahydro-2H-pyran-4-ylmethyl)-1,3-benzoxazole-6-carboxamide]",–,0.09286
"Cc1c[nH]c(CN(C)C(=O)c2ccc3oc(-c4ccc(C(F)(F)F)cc4)nc3c2)n1 [N-methyl-N-[(4-methyl-1H-imidazol-2-yl)methyl]-2-[4-(trifluoromethyl)phenyl]-1,3-benzoxazole-5-carboxamide]",–,0.1327
"COCCCNC(=O)c1cccc2nc(N(C)C)oc12 [2-(dimethylamino)-N-(3-methoxypropyl)-1,3-benzoxazole-7-carboxamide]",−39.581%,–
"COc1cc(C(=O)NCC(C)C)cc(OC)c1O [4-hydroxy-3,5-dimethoxy-N-(2-methylpropyl)benzamide]",−25.2896%,–

Compound,"Caspase-3 induction, Normalized to Formula (III) (%)",Ratio of caspase-3 activity to Formula (III)
"Cn1cnnc1CCNC(=O)c1ccc2oc(-c3cccc(F)c3)nc2c1 [2-(3-fluorophenyl)-N-[2-(4-methyl-4H-1,2,4-triazol-3-yl)ethyl]-1,3-benzoxazole-5-carboxamide]",–,0.7133
"O=C(c1ccc2oc(-c3ccc(C(F)(F)F)cc3)nc2c1)N1CCOCC1 [5-(4-morpholinylcarbonyl)-2-[4-(trifluoromethyl)phenyl]-1,3-benzoxazole]",–,0.1317
"O=C(NC1CCCC1)c1ccc2nc(S)oc2c1 [N-cyclopentyl-2-sulfanyl-1,3-benzoxazole-6-carboxamide]",−81.3264%,–
"O=C(NC1C=CS(=O)(=O)C1)c1ccc2oc(-c3cccc(F)c3)nc2c1 (stereo not shown) [N-(1,1-dioxido-2,3-dihydro-3-thienyl)-2-(3-fluorophenyl)-1,3-benzoxazole-5-carboxamide]",–,0.09701
"O=C(NC1CCCC1)c1cc2c(cc1O)OCO2 [N-cyclopentyl-6-hydroxy-2H-1,3-benzodioxole-5-carboxamide]",−61.6444%,–
"O=C(c1ccc2nc(C(F)(F)F)oc2c1)N1CCCC1 [6-(pyrrolidine-1-carbonyl)-2-(trifluoromethyl)-1,3-benzoxazole]",−71.4007%,–
"CCn1ccnc1CN(C)C(=O)c1ccc2nc(-c3cccc(OC)c3)oc2c1 [N-[(1-ethyl-1H-imidazol-2-yl)methyl]-2-(3-methoxyphenyl)-N-methyl-1,3-benzoxazole-6-carboxamide]",–,1.071
"CCN(C)C(=O)c1ccc2ocnc2c1 [N-ethyl-N-methyl-1,3-benzoxazole-5-carboxamide]",−74.9828%,–
"O=C(NCc1ccccc1)c1cc2c(cc1O)OCO2 [N-benzyl-6-hydroxy-2H-1,3-benzodioxole-5-carboxamide]",−9.366%,–
"COc1cccc(-c2nc3ccc(C(=O)NCc4nnn[nH]4)cc3o2)c1 [2-(3-methoxyphenyl)-N-(1H-tetrazol-5-ylmethyl)-1,3-benzoxazole-6-carboxamide]",–,0.3911
"COc1cccc(-c2nc3ccc(C(=O)N(C)CC(O)c4ccccc4)cc3o2)c1 (stereo not shown) [N-(2-hydroxy-2-phenylethyl)-2-(3-methoxyphenyl)-N-methyl-1,3-benzoxazole-6-carboxamide]",–,0.1589
"COc1cc(Br)c(C(=O)NCC2CCOCC2)cc1OC [2-bromo-4,5-dimethoxy-N-[(oxan-4-yl)methyl]benzamide]",−43.6422%,–
"CC(C)NC(=O)c1ccc2oc(-c3ccc(C(F)(F)F)cc3)nc2c1 [N-isopropyl-2-[4-(trifluoromethyl)phenyl]-1,3-benzoxazole-5-carboxamide]",–,0.2847
"COc1cccc(-c2nc3ccc(C(=O)N4CCN(CCC(N)=O)CC4)cc3o2)c1 [3-(4-{[2-(3-methoxyphenyl)-1,3-benzoxazol-6-yl]carbonyl}-1-piperazinyl)propanamide]",–,1.077
CCOc1ccc(C(=O)NCc2ccccc2)cc1O [N-benzyl-4-ethoxy-3-hydroxybenzamide],19.0685%,–
"O=C(NC1CCC1)c1ccc2oc(-c3ccc(C(F)(F)F)cc3)nc2c1 [N-cyclobutyl-2-[4-(trifluoromethyl)phenyl]-1,3-benzoxazole-5-carboxamide]",–,1.28
"O=C(NCCc1cn[nH]c1)c1ccc2oc(-c3cccc(F)c3)nc2c1 [2-(3-fluorophenyl)-N-[2-(1H-pyrazol-4-yl)ethyl]-1,3-benzoxazole-5-carboxamide]",–,0.4925
"O=C(c1ccc2nc(-c3ccccc3)oc2c1)N1CCC12CCOC2 (stereo not shown) [6-{6-oxa-1-azaspiro[3.4]octane-1-carbonyl}-2-phenyl-1,3-benzoxazole]",–,1.434
"COCCCNC(=O)c1ccc2nc(S)oc2c1 [N-(3-methoxypropyl)-2-sulfanyl-1,3-benzoxazole-6-carboxamide]",15.2459%,–
"O=C(c1ccc2nc(S)oc2c1)N1CCCC1 [6-(pyrrolidine-1-carbonyl)-1,3-benzoxazole-2-thiol]",−30.7254%,–
"COc1cc(C(=O)NCC2(C)CC2)cc(OC)c1O [4-hydroxy-3,5-dimethoxy-N-[(1-methylcyclopropyl)methyl]benzamide]",−0.598%,–

# Reference: US20230255906A1, “Targeting Serpin B9 in Cancer” (The Brigham and Women`s Hospital, Inc., priority 2020, published 2023)
